How the values were obtained:
[1] = DTI (dye transfer inhibition) test, white cotton in wash liquor with dissolved test dye; conditions: complex 20 μmol/l wash liquor, 8.6 mmol/l H2O2, 40° C., 30 min; for DTI effect a(%) Dye 1: Direct Brown 172 10 mg/l of the 250% formulation; for DTI effect a(%) Dye 2: Reactive Blue 238 6 mg/l of the 100% formulation
Experimental: The catalysts were tested for DTI activity. The DTI (dye transfer inhibition) effect a is defined as the following percentage:
a=([Y(E)−Y(A)]/[Y(W)−Y(A)])*100
where Y(W), Y(A) and Y(E) are the CIE lightnesses of the white material, of the material treated without added catalyst and of the material treated with added catalyst, in that order. a=0 characterizes a product of nil utility, the inclusion of which in the wash liquor does nothing to impede dye transfer. a=100%, by contrast, defines a perfect catalyst, which completely suppresses the tainting of the white material.
The test data are determined using the following testing system: 7.5 g of white cotton are treated in 80 ml of wash liquor. This liquor contains the standard detergent ECE phosphate-free (456 IEC) EMPA, Switzerland, in a concentration of 7.5g/l, 8.6 mmol/l H2O2, and a solution of the test dye. The washing process is carried out in a pot in a LINITEST apparatus at 40° C. for 30 min. Commercially available Direct Brown 172 (dye 1) at 10 mg/l of the 250% formulation or Reactive Blue 238 (dye 2) at 6 mg/l of the 100% formulation were used as test dyes. The reflectants spectra of the samples were measured with a SPECTRAFLASH 2000 and transformed into D65/10 lightnesses by the CIE standard procedure.
The manganese complexes are synthesized either as described in Example 13 or in situ by adding the corresponding manganese(III) salt in ethanolic solution. The complexes are always used at 20 μmol/l wash liquor. It is evident from the table that the recited catalysts are very effective DTI catalysts. […]

[2] = Bleach test, tea stain on cotton fabric; conditions: 100 μmol/l ligand; 8.6 mmol/l hydrogen peroxide; 40° C., 30 minutes; H2O2 only gives 18
Experimental: The bleach tests are carried out as follows: 7.5 g of white cotton fabric and 2.5 g of a tea stain on cotton fabric are treated in 80 ml of wash liquor. This liquor contains the standard laundry detergent ECE phosphate-free (456 IEC) EMPA, Switzerland in a concentration of 7.5 g/l, hydrogen peroxides in a concentration of 8.6 mmol/l and optionally 100 μmol/l of one of the ligands according to the invention. The washing process takes place in a steel pot in a LINITEST apparatus at 40° C. for 30 minutes. The bleaching results are evaluated using the increase in lightness DY (lightness difference as per CIE) of the stain due to the treatment.

| Structure (SMILES) | DTI effect a(%) Dye 1 [1] [%] | DTI effect a(%) Dye 2 [1] [%] | DY with H2O2 and ligand (increase in lightness of the stain) [2] |
| --- | --- | --- | --- |
| Oc1ccccc1/C=N\CCN(CC/N=C/c1ccccc1O)CC/N=C/c1ccccc1O [Example 1, N,N′,N″-Tris[salicylideneaminoethyl]amine] | 91 | 96 | – |
| CCN(CC)c1ccc(C=NCCN(CCN=Cc2ccc(N(CC)CC)cc2O)CC/N=C/c2ccc(N(CC)CC)cc2O)c(O)c1 [Example 2, N,N′,N″-Tris[4-N-diethylaminosalicylideneaminoethyl]amine] | 78 | 73 | 21 |
| CN(C)c1ccc(/C=N\CCN(CC/N=C/c2ccc(N(C)C)cc2O)CC/N=C/c2ccc(N(C)C)cc2O)c(O)c1 [Example 3, N,N′,N″-Tris[4-N-dimethylaminosalicylideneaminoethyl]amine] | 85 | 80 | 22 |
| COc1ccc(/C=N\CCN(CC/N=C/c2ccc(OC)cc2O)CC/N=C/c2ccc(OC)cc2O)c(O)c1 [Example 4, N,N′,N″-Tris[4-methoxysalicylideneaminoethyl]amine] | 83 | 67 | – |
| Oc1ccc(/C=N\CCN(CC/N=C/c2ccc(O)cc2O)CC/N=C/c2ccc(O)cc2O)c(O)c1 [Example 5, N,N′,N″-Tris[4-hydroxysalicylideneaminoethyl]amine] | 78 | 27 | – |
| O=[N+]([O-])c1ccc(O)c(C=NCCN(CCN=Cc2cc([N+](=O)[O-])ccc2O)CC/N=C/c2cc([N+](=O)[O-])ccc2O)c1 [Example 6, N,N′, N″-Tris[5-nitrosalicylideneaminoethyl]amine] | 70 | 80 | – |
| CC(C)N(C)c1ccc(C=NCCN(CCN=Cc2ccc(N(C)C(C)C)cc2O)CC/N=C/c2ccc(N(C)C(C)C)cc2O)c(O)c1 [Example 7, N,N′,N″-Tris[(4-N-methyl-N-isopropylamino)salicylideneaminoethyl]amine] | 84 | 83 | 21 |
| CCN(C)c1ccc(C=NCCN(CCN=Cc2ccc(N(C)CC)cc2O)CC/N=C/c2ccc(N(C)CC)cc2O)c(O)c1 [Example 8, N,N′,N″-Tris[(4-N-methyl-N-ethylamino)salicylideneaminoethyl]amine] | 85 | 81 | 22 |
| Cc1ccc(C=NCCN(CCN=Cc2ccc(C)cc2O)CC/N=C/c2ccc(C)cc2O)c(O)c1 [Example 9, N,N′,N″-Tris[4-methylsalicylideneaminoethyl]amine] | 87 | 94 | – |
| C[N+](C)(C)c1ccc(C=NCCN(CCN=Cc2ccc([N+](C)(C)C)cc2O)CC/N=C/c2ccc([N+](C)(C)C)cc2O)c(O)c1.[Br-].[Br-].[Br-] [Example 10, N,N′, N″-Tris[4-trimethylammoniosalicylideneaminoethyl]amine tribromide] | 90 | 96 | – |
| C[N+](C)(C)c1ccc(O)c(C=NCCN(CCN=Cc2cc([N+](C)(C)C)ccc2O)CC/N=C/c2cc([N+](C)(C)C)ccc2O)c1.[Br-].[Br-].[Br-] [Example 11, N,N′,N″-Tris[5-trimethylammoniosalicylideneaminoethyl]amine tribromide] | 86 | 94 | – |
| O=S(=O)([O-])c1ccc(O)c(C=NCCN(CCN=Cc2cc(S(=O)(=O)[O-])ccc2O)CC/N=C/c2cc(S(=O)(=O)[O-])ccc2O)c1.[Na+].[Na+].[Na+] [Example 12, N,N′,N″-Tris[5-sulfonatosalicylideneaminoethyl]amine, trisodium salt] | 80 | 99 | – |

From US6800775B1, “Metal complexes of tripodal ligands” (Ciba Specialty Chemicals Corporation, priority 1999, dated 2004)
